We go through 7 compounds from patent US20240383922A1, “KRAS Modulating Compounds” (Gilead Sciences, Inc., priority 2023, published 2024).

The test system of assay [1] is cellular pERK in NCI-H441 (KRAS-G12V) cell-line. The assay can be described thus: Cell based pERK assay (HTRF), NCI-H441. Conditions: Homo sapiens; NCI-H441 (KRAS-G12V) cells, 2 hours incubation. The procedure, abridged: (§1)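 Following overnight attachment, cells received compound in a three-fold dilution series for 2 hours at 37 °C. Medium was then removed and combined lysis and phospho-ERK detection reagent was added for overnight incubation at room temperature before time-resolved FRET reading.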
On the technique in general: Time-resolved FRET reads energy transfer from a long-lived donor to a nearby acceptor.

For assay [2], the system named is cellular pERK in ASPC-1 (KRAS G12D) cell-line. The assay can be described thus: Cell based pERK assay (HTRF), ASPC-1. The conditions noted are these: Homo sapiens, ASPC1; ASPC-1 (KRAS G12D) cells, 2 hours incubation. The procedure, abridged: as §1
The next assay addresses GDP-loaded KRAS-G12C (Homo sapiens (Human), UniProt P01116, G12C). The experiment in a line: KRAS (GDP) biochemical TR-FRET probe displacement assay, KRAS-G12C. It counts as binding. The conditions noted are these: 2 hours. Here is the method:
(§2) KRAS (GDP) Biochemical Assays:
(§3) Compounds were serially diluted (1:3) in DMSO. The LabCyte ECHO Acoustic dispenser was used to pre-spot the assay plates (384-well Non-Binding Surface plates, Corning, Catalog #3824) with 50 nL of compound. 5 μL of 2× enzyme concentration was added to the pre-spotted plates and incubated for 30 minutes before adding 5 μL of 2× concentration of Eu-streptavidin and Cy-5 labelled probe (10 μL final reaction volume). The plates were incubated at room temperature for 2 hours before measuring TR-FRET ratio (665 nm/615 nm) on the Envision multimode plate reader. The ratios were normalized to a positive (saturating concentration of known inhibitor) and negative (DMSO) control and plotted against the log of compound concentration.

Assay [3] concerns cellular pERK in Kuramochi (WT KRAS) cell-line. The experiment in a line: Cell based pERK assay (HTRF), Kuramochi. The conditions noted are these: Kuramochi (WT KRAS) cells, 2 hours incubation. In a few lines:
as §1

For the next assay, the target named is GDP-loaded KRAS-G12D (Homo sapiens (Human), UniProt P01116, G12D). The experiment in a line: KRAS (GDP) biochemical TR-FRET probe displacement assay, KRAS-G12D. The format is binding. Conditions: 2 hours. Here is the method: as §2, §3
A further assay deals with GDP-loaded KRAS-G12V (Homo sapiens (Human), UniProt P01116, G12V). The assay can be described thus: KRAS (GDP) biochemical TR-FRET probe displacement assay, KRAS-G12V. The format is binding. The conditions noted are these: 2 hours. The method, then: as §2, §3
In assay [4] the target is GDP-loaded wild-type KRAS (WT) (Homo sapiens (Human), UniProt P01116). The experiment in a line: KRAS (GDP) biochemical TR-FRET probe displacement assay, WT KRAS. It counts as binding. Conditions: 2 hours. Here is the method:
as §2, §3

The test system of assay [5] is cellular pERK in MIA-PaCa-2 (KRAS-G12C) cell-line. The assay can be described thus: Cell based pERK assay (HTRF), MIA-PaCa-2. Conditions: Homo sapiens; MIA-PaCa-2 (KRAS-G12C) cells, 2 hours incubation; read-out: MIAPaCa2 pERK EC50. In a few lines: as §1

Sequence of GDP-loaded KRAS-G12V (P01116-2 other isoform, or with tags, fused parts or gaps G12V): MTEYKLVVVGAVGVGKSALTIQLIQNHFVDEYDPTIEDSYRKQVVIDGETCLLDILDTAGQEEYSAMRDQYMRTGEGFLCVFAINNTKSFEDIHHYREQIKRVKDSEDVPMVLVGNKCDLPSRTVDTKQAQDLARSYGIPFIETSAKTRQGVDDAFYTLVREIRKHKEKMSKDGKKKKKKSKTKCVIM
Sequence of GDP-loaded wild-type KRAS (WT) (P01116-2 other isoform, or with tags, fused parts or gaps): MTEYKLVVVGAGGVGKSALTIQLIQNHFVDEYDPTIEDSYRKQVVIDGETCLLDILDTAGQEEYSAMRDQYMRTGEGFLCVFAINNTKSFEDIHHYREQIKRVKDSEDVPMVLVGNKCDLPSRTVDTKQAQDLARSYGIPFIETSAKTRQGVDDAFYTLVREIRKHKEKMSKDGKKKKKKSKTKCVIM
Sequence of GDP-loaded KRAS-G12C (P01116-2 other isoform, or with tags, fused parts or gaps G12C): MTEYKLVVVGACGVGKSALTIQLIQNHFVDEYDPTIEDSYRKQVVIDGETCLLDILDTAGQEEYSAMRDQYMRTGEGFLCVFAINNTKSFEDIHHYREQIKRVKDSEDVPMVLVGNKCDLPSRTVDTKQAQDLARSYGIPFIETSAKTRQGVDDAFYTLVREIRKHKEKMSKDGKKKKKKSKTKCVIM
Sequence of GDP-loaded KRAS-G12D (P01116-2 other isoform, or with tags, fused parts or gaps G12D): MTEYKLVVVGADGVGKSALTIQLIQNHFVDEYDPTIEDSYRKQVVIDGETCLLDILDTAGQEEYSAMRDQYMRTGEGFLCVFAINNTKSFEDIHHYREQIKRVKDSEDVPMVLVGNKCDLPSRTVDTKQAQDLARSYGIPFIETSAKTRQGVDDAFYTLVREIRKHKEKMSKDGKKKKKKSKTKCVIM

For `C#Cc1c(F)ccc2cc(N)cc(-c3nc4c5c(nc(OC[C@@]67CCCN6[C@H](COc6nccnc6C(F)F)CC7)nc5c3F)N3CCCOC[C@@H]3CC4)c12` [Example 7-6], the EC50 came out at 11.8 nM in assay [1], 32.1 nM in assay [2], 4.17 nM in assay [3] and 3.88 nM in assay [5]. The half-maximal inhibitory concentration (IC50) amounted to 1.09 nM at GDP-loaded KRAS-G12C, 3.15 nM on GDP-loaded KRAS-G12D, 1.2 nM at GDP-loaded KRAS-G12V and 1.93 nM in assay [4].

`C#Cc1c(F)ccc2cc(N)cc(-c3c(F)c4c5c(nc(OC[C@@]67CCCN6C[C@H](F)C7)nc5c3F)N3CCCOC[C@@H]3CC4)c12` [Example 7-12]: the EC50 in assay [1] came out at 32.6 nM; in assay [2] it was 104 nM; in assay [3], 7.88 nM; in assay [5], 8.18 nM. Besides, the IC50 is 4.58 nM at GDP-loaded KRAS-G12C, 24.6 nM on GDP-loaded KRAS-G12D, 15.8 nM on GDP-loaded KRAS-G12V and 30 nM in assay [4].

For the compound `C#Cc1c(F)ccc2cc(O)cc(-c3nc4c5c(nc(OCC6(CN7CCCCC7)CC6)nc5c3F)N3CCCOC[C@@H]3CC4)c12` [Example 15-1, (S)-5-ethynyl-6-fluoro-4-(1-fluoro-12-((1-(piperidin-1-ylmethyl)cyclopropyl)methoxy)-4,5,5a,6,9,10-hexahydro-8H-7-oxa-3,10a,11,13-tetraazanaphtho[1,8-ab]heptalen-2-yl)naphthalen-2-ol], the EC50 in assay [1] stood at 572 nM; in assay [2] it was 655 nM; in assay [3], 181 nM; in assay [5], 217 nM. Moreover, the IC50 at GDP-loaded KRAS-G12C was 37.1 nM; on GDP-loaded KRAS-G12D, 56.4 nM; at GDP-loaded KRAS-G12V, 47.7 nM; in assay [4], 69.1 nM.

Take `C#Cc1c(F)ccc2cccc(-c3nc4c5c(nc(OC[C@@]67CCCN6[C@H](COC(=O)N6CCCCC6)CC7)nc5c3F)N3CCCOC[C@@H]3CC4)c12` [Example 16-2]: the EC50 turned out to be 0.56 nM in assay [1], 0.62 nM in assay [2], 1.99 nM in assay [3] and 0.28 nM in assay [5]. Also, the IC50 amounted to 0.19 nM at GDP-loaded KRAS-G12C, 0.24 nM on GDP-loaded KRAS-G12D, 0.2 nM on GDP-loaded KRAS-G12V and 0.17 nM in assay [4].

`C#Cc1c(F)ccc2cc(O)cc(-c3nc4c5c(nc(OC[C@@]67CCCN6[C@H](COc6cc(C(F)(F)F)ncn6)CC7)nc5c3F)N3CCCOC[C@@H]3C=C4C)c12` [Example 18-1, 5-ethynyl-6-fluoro-4-((S)-1-fluoro-4-methyl-12-(((3S,7aS)-3-(((6-(trifluoromethyl)pyrimidin-4-yl)oxy)methyl)tetrahydro-1H-pyrrolizin-7a(5H)-yl)methoxy)-5a,6,9,10-tetrahydro-8H-7-oxa-3,10a,11,13-tetraazanaphtho[1,8-ab]heptalen-2-yl)naphthalen-2-ol]: the EC50 in assay [1] was 12.8 nM; in assay [2], 14 nM; in assay [3], 3.53 nM; in assay [5], 3.25 nM. Moreover, the IC50 on GDP-loaded KRAS-G12C was 3.59 nM; on GDP-loaded KRAS-G12D it was 3.27 nM; at GDP-loaded KRAS-G12V it was 2.77 nM; in assay [4], 5.56 nM.

Regarding `C#Cc1c(F)ccc2cc(O)cc(-c3nc4c5c(nc(OC[C@@]67CCCN6[C@H](COc6cc(C(F)(F)F)cnn6)CC7)nc5c3F)N3CCCOC[C@@H]3C=C4C)c12` [Example 18-2], the EC50 is 1.05 nM in assay [1], 1.39 nM in assay [2], 3.63 nM in assay [3] and 0.82 nM in assay [5]. For the same compound, the IC50 on GDP-loaded KRAS-G12C amounted to 0.49 nM; on GDP-loaded KRAS-G12D it was 0.65 nM; at GDP-loaded KRAS-G12V, 0.42 nM; in assay [4], 0.36 nM.

Take `C#Cc1c(F)ccc2cc(O)cc(-c3nc4c5c(nc(OC[C@@]67CCCN6[C@H](COC(C(F)(F)F)(C(F)(F)F)C(F)(F)F)CC7)nc5c3F)N3CCCOC[C@@H]3CC4)c12` [Example 22-4]: the EC50 in assay [1] amounted to 1.97 nM; in assay [2], 2.31 nM; in assay [3] it was 3.16 nM; in assay [5] it was 0.86 nM. Moreover, the IC50 is 1.83 nM on GDP-loaded KRAS-G12C, 1.65 nM at GDP-loaded KRAS-G12D, 1.59 nM at GDP-loaded KRAS-G12V and 1.2 nM in assay [4].

Usually EC50 stands for the concentration needed to bring the measured effect to its halfway point. Broadly, the IC50 is the concentration at which inhibition is half-maximal. A low value points to inhibition by little substance.
